For assay [1], the system named is SF268-MCAT_Luc_dox-i-shYAPLevy (Clone 13) cells. The assay can be described thus: Proliferation assay (resazurin/AlamarBlue), SF268. It is filed as cell-based. The following applies: Homo sapiens, SF-268; SF268, 72 hours. From the text: (§1) NCI-H2052 mesothelioma cells (RRID: CVCL_1518) bearing Hippo-pathway inactivating mutations upstream of YAP (homozygous deletion of LATS2 and mutation of NF2) were obtained from ATCC (American Type Culture Collection), while SF268 glioma cells (RRID: CVCL_1689) overexpressing YAP due to genomic amplification were obtained from the NCI (National Cancer Institute). MKN-45 gastric adenocarcinoma cells (RRID: CVCL_0434) genomically deleted for YAP were obtained from the JCRB (Japanese Collection of Research Bioresources) Cell Bank.
(§2) Stock solutions of compounds were prepared at a concentration of 10 mM in DMSO and stored at 4° C. Where necessary to afford a full dose-response curve, the stock solutions were pre-diluted in DMSO to 1′000-fold the desired reduced start concentration. On the day after cell seeding, eleven 2-fold serial dilutions of each compound were dispensed directly into the cell assay plates using a HP 300D non-contact Digital Dispenser (TECAN). The final concentration of DMSO was normalized to 0.1% in all wells.
(§3) After incubation for 72 hours at 37° C., compound-mediated modulation of cell viability was quantified as follows. […] To enable differentiation of cytotoxic from cytostatic compound effects, the number of viable cells on the day of compound addition (day 0) was assessed in a separate cell plate and used to assess the extent of cell viability suppression as described in the following section.
(§4) For data analysis, the assay background value determined in wells containing medium, but no cells, was subtracted from all data points.
(§5) The extent of growth inhibition and potential cell kill was assessed by comparing the resorufin levels in compound-treated cells with those present at the time of compound addition. To this end, the following conditional concept was programmatically applied in HELIOS to calculate % growth (% G) for each compound-treated well: % G=(T−V0)/V0))*100 when T<V0, and % G=(T−V0)/(V−V0)))*100 when T≥V0, where V0 is the viability level at time of compound addition, while V and T represent vehicle-control and compound-treated viability levels, respectively, at the end of the compound incubation. 100%, 0% and −100% signify absence of growth inhibition, growth stasis, and complete cell kill, respectively. Compound concentrations leading to half-maximal growth inhibition (GI50) and residual cell viability at the highest tested compound concentration (Data(cmax), expressed in percent) were routinely calculated.

For assay [2], the system named is NCI-H2052 Tet-On shYAP_2371 pLenti6 MCAT_Luc cells. The assay can be described thus: Proliferation assay (resazurin/AlamarBlue), NCI-H2052. It is filed as cell-based. The settings on record: Homo sapiens; NCI-H2052, 72 hours.
Description: as §1, §2, §3, §4, §5
In general terms: Alamar Blue is a resazurin reagent that responds to reducing activity.

Assay [3] relates to MKN-45/Ubc-luc cells. In words: Proliferation assay (resazurin/AlamarBlue), MKN-45. It is filed as cell-based. The following applies: Homo sapiens; MKN-45, 72 hours.
Description: as §1
As a specificity control, MKN-45 cells were stably transduced with a Ubc-Luc reporter construct, in which constitutive expression of firefly luciferase is driven by the promoter of the ubiquitin C housekeeping gene.
as §2, §3, §4, §5

Assay [4] relates to YAP-dependent transcription in SF268-MCAT_Luc_dox-i-shYAPLevy (Clone 13) cells. The assay can be described thus: YAP reporter gene activity assay (MCAT-Luc), SF268. The following applies: Homo sapiens, SF-268; SF268 MCAT_Luc, 24 hrs. It is filed as cell-based.
Assay [5] concerns the target TEAD1-GFP in HEK293A cells (Homo sapiens (Human), UniProt P28347). In words: TEAD1 protein abundance flow cytometry assay in HEK293A. The settings on record: HEK293A TEAD1-GFP-CHYSEL-mCherry sensor cells, 24 h, GFP signal by flow cytometry. It is filed as cell-based. As to the method: Degradation of TEAD1 was measured in HEK293A cells (Invitrogen R70507) expressing TEAD1-GFP and mCherry from a stably integrated bicistronic TEAD1-GFP-CHYSEL-mCherry construct. Reduction of the GFP signal measured by flow cytometry served as readout for TEAD1 degradation after degrader treatment.
Stable HEK293A sensor cells were maintained in complete growth medium (DMEM high Glucose+10% FCS+1% L-Glutamine+1% NEAA+1% NaPyr.+4 μg/mL blasticidin) with passaging performed twice per week. On Day 0, stable HEK293A sensor cells were seeded at 5,000 cells/well in a 96-well microtiter plate in 100 μL complete medium. On Day 1, cells were treated in duplicate with 10-point 1:3 dilution series of compound using the HP D300 Digital Dispenser (Tecan). DMSO concentrations were normalized across the plate to 0.1%. On Day 2, after 24 h of incubation at 37° C., treatment media was discarded, cells rinsed with 100 μL/well PBS and then detached using 40 μL trypsin/well for 5 min. Trypsin was neutralized with 100 μL/well PBS+20% FCS).
Flow cytometry was performed on the samples using the CytoFlex S (Beckman Coulter). Cell identification was then performed using forward (FSC) vs. side scatter (SSC) plots. Single cell discrimination was performed using SSC-Width (SSC-W) vs. SSC-Height (SSCH) plots. Median GFP values for 2,500 single cells were used to determine TEAD1 levels. Median GFP values from HEK293A were used as a background signal and thus defining 0% TEAD1 signal. Median GFP values from DMSO treated HEK293A TEAD1-GFP CHYSEL-mCherry were used to define 100%
TEAD1 signal for subsequent DC50 curves (concentration at 50% TAED1 degradation). GFP and RFP were read in the channels called FITC and PE, respectively. Concentration response curves plotting relative reduction of the GFP signal (measured by flow cytometry) versus 10 compound concentrations (starting concentration 10 μM, 3 fold dilution steps) of the compounds allowed generation of DC50 values.
In general terms: Flow cytometry measures light scatter and fluorescence of single cells or particles in a stream.

In assay [6] the test system is YAP-dependent transcription in NCI-H2052 Tet-On shYAP_2371 pLenti6 MCAT_Luc cells. In words: YAP reporter gene activity assay (MCAT-Luc), NCI-H2052. It is filed as cell-based. The following applies: Homo sapiens, 24 hrs.
The target in assay [7] is Avi-humanTEAD4^217-434 / Cy5 labeled humanYAP^60-100 (Homo sapiens (Human), UniProt Q15561). The assay can be described thus: In-vitro biochemical TR-FRET assay (TEAD4/YAP). It is filed as binding. The settings on record: 1 h at room temperature. As to the method:
N-terminus Cy5 labeled humanYAP^60-100 (20 nM) was then added to this preparation. Compounds were dissolved at 10 mM in 100% DMSO and serial dilutions were made in 100% DMSO. The diluted compound solutions were incubated in white 384-well plates (Greiner Bio-One) for 1 h at room temperature with the above described mix. The final DMSO concentration present in the assay was 1%. […] The IC50 values were estimated by fitting the data by nonlinear fit regression (GraphPad Prism).
A general note: TR-FRET usually uses a lanthanide donor and a delayed reading to cut background.

The test system of assay [8] is MKN-45/Ubc-luc cells (unspecific inhibition of luciferase expression or activity). In words: Reporter gene assay specificity control (Ubc-Luc), MKN-45. The settings on record: Homo sapiens; MKN-45/Ubc-luc specificity control, 24 hrs. It is filed as cell-based.
Description: as §1
As a specificity control, MKN-45 cells were stably transduced with a Ubc-Luc reporter construct, in which constitutive expression of firefly luciferase is driven by the promoter of the ubiquitin C housekeeping gene. The resulting cell line, MKN-45/Ubc-luc, was selected and maintained in growth medium (RPMI 1640 (Amimed Cat #1-41F01-I), 2 mM L-Glutamine (Amimed Cat #5-10K50-H), 10% fetal calf serum (Amimed Cat #2-01F30-I Lot K08815P), 1% MEM Non-essential amino acids (Amimed Cat #5-13K00-H), 1× Penicillin/Streptomycin (Amimed Cat #4-01F00-H)) containing 1 μg/ml blasticidin (Gibco Cat #A11139-03).
as §2
The ability of compounds to inhibit YAP-dependent transcription was assessed in NCI-H2052 Tet-On shYAP_2371 pLenti6 MCAT_Luc and SF268-MCAT_Luc, dox-i-shYAPLevy (Clone 13) cells, while specificity (lack of unspecific inhibition of luciferase expression or activity) was assessed in MKN-45/Ubc-luc cells. The individual cell lines were seeded at 2′500 cells/20 μl/well into white-wall, clear-bottom 384-well plates (Greiner, Cat #781098) and incubated over night at 37° C. prior to addition of serial compound dilutions as described above. Following incubation for 24 hrs at 37° C., compound-mediated modulation of reporter-gene activity was quantified 5 min after addition 20 μL […] BrightGlo (Promega Cat #E2620), by measuring luminescence intensity on a multi-mode plate-reader (TECAN) with an integration time of 100 ms.
as §4

These results are taken from patent US20240382600A1, “BIFUNCTIONAL DEGRADERS COMPRISING A TEAD BINDER” (Novartis AG, priority 2021, published 2024).

Molecules are shown by their SMILES.

For orientation: GI50 means the concentration giving 50% growth inhibition. Read a low GI50 as more potent growth inhibition. One may read the IC50 as the point on the concentration scale where inhibition reaches its midpoint. Low values mean higher potency, high ones lower potency.

Avi-humanTEAD4^217-434 / Cy5 labeled humanYAP^60-100, sequence (Q15561 217-434): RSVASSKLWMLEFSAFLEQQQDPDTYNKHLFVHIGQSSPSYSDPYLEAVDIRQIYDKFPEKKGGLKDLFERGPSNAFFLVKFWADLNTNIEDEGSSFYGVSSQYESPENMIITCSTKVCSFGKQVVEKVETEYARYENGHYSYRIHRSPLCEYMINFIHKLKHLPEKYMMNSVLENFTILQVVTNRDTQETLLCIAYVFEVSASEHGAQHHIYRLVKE
TEAD1-GFP in HEK293A cells, sequence (P28347 whole entry): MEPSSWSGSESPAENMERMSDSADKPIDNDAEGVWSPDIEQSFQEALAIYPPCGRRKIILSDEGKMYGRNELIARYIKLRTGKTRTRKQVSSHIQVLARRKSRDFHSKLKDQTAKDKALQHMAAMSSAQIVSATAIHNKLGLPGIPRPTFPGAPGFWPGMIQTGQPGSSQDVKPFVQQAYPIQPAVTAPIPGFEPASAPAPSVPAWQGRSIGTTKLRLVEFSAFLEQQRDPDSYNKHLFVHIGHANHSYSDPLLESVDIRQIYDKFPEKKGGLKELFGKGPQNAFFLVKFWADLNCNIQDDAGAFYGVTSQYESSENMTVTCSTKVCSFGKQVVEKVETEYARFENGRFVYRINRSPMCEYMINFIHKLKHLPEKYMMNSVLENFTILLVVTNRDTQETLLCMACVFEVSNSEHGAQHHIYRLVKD

As to `COc1ccc(C(N)=O)c(-c2c(Cl)c(F)cc3c2[C@H](C)[C@@](CN[C@H]2CC[C@H](C(=O)N4CCN(CC5CCN(C(=O)COc6ccc(C)c(N7CCC(=O)NC7=O)c6)CC5)CC4)CC2)(c2ccccc2)O3)c1F` (atropisomer, axis not shown) [Example 22, 2-((2S,3S,4S)-5-chloro-2-((((1r,4S)-4-(4-((1-(2-(3-(2,4-dioxotetrahydropyrimidin-1(2H)-yl)-4-methylphenoxy)acetyl)piperidin-4-yl)methyl)piperazine-1-carbonyl)cyclohexyl)amino)methyl)-6-fluoro-3-methyl-2-phenyl-2,3-dihydrobenzofuran-4-yl)-3-fluoro-4-methoxybenzamide], the GI50 in assay [1] is 9.5 nM; in assay [2] it was 9.5 nM; in assay [3], over 2000 nM. Besides, the IC50 was 0.18 nM in assay [4], 2 nM in assay [6], 1 nM in assay [7] and over 2000 nM in assay [8]. Moreover, the DC50 in assay [5] is 0.4 nM.

For the compound `COc1ccc(C(N)=O)c(-c2c(Cl)c(F)cc3c2[C@H](C)[C@@](CN[C@H]2CC[C@H](C(=O)N4CCC(OC5CCN(C(=O)COc6ccc(C)c(N7CCC(=O)NC7=O)c6)CC5)CC4)CC2)(c2ccccc2)O3)c1F` (atropisomer, axis not shown) [Example 20, 2-((2S,3S,4S)-5-chloro-2-((((1r,4S)-4-(4-((1-(2-(3-(2,4-dioxotetrahydropyrimidin-1(2H)-yl)-4-methylphenoxy)acetyl)piperidin-4-yl)oxy)piperidine-1-carbonyl)cyclohexyl)amino)methyl)-6-fluoro-3-methyl-2-phenyl-2,3-dihydrobenzofuran-4-yl)-3-fluoro-4-methoxybenzamide], the figures for the GI50 in assay [1], in assay [2] and in assay [3] were 18 nM, 19 nM and over 20000 nM, respectively. For the same compound, the IC50 in assay [4] was 0.22 nM; in assay [6], 3.9 nM; in assay [7], 1.4 nM; in assay [8], over 20000 nM. In addition, the DC50 in assay [5] was 0.4 nM.

On to `COc1ccc(C(N)=O)c(-c2c(Cl)c(F)cc3c2[C@H](C)[C@@](CN[C@H]2CC[C@H](C(=O)O)CC2)(c2ccccc2)O3)c1F` (atropisomer, axis not shown) [C-I, (1S,4r)-4-((((2S,3S,4S)-4-(6-carbamoyl-2-fluoro-3-methoxyphenyl)-5-chloro-6-fluoro-3-methyl-2-phenyl-2,3-dihydrobenzofuran-2-yl)methyl)amino)cyclohexane-1-carboxylic acid], for which the concentration for 50% growth inhibition (GI50) is over 2000 nM in assay [1], 170 nM in assay [2] and over 2000 nM in assay [3]. In addition, the IC50 in assay [4] is 180 nM; in assay [6], 130 nM; in assay [7], 2.2 nM; in assay [8] it was over 2000 nM.

`COc1ccc(C(N)=O)c(-c2c(Cl)c(F)cc3c2[C@H](C)[C@@](CNCCCCCc2cccc4c2CN(C2CCC(=O)NC2=O)C4=O)(c2ccccc2)O3)c1F` (stereo partly drawn) [Example 35, 2-((2S,3S,4S)-5-chloro-2-(((5-(2-(2,6-dioxopiperidin-3-yl)-1-oxoisoindolin-4-yl)pentyl)amino)methyl)-6-fluoro-3-methyl-2-phenyl-2,3-dihydrobenzofuran-4-yl)-3-fluoro-4-methoxybenzamide]: the GI50 in assay [1] is under 20 nM; in assay [2], 35 nM; in assay [3] it was 33 nM. Besides, the IC50 in assay [4] is 23 nM; in assay [6] it was 32 nM; in assay [7], 7.2 nM; in assay [8], 44 nM.

With `COc1ccc(C(=O)NCCCCCn2cc(-c3ccc4c(c3)CN(C3CCC(=O)NC3=O)C4=O)nn2)c(-c2c(Cl)c(F)cc3c2C[C@@](CN)(c2ccccc2)O3)c1F` (stereo partly drawn) [Example 37, 2-((2S,4S)-2-(aminomethyl)-5-chloro-6-fluoro-2-phenyl-2,3-dihydrobenzofuran-4-yl)-N-(5-(4-(2-(2,6-dioxopiperidin-3-yl)-1-oxoisoindolin-5-yl)-1H-1,2,3-triazol-1-yl)pentyl)-3-fluoro-4-methoxybenzamide], the GI50 in assay [1] was 14900 nM; in assay [2] it was 6050 nM; in assay [3], 12400 nM. In addition, the IC50 in assay [4] is 420 nM; in assay [6], 3350 nM; in assay [7] it was 120 nM; in assay [8], 15900 nM.
